Literature values as cited in patent publication US20020022649A1, “STABLE PHARMACEUTICAL FORMULATION” (priority 1998, published 2002).

Conditions: centchroman as a racemate

COc1ccc2c(c1)OC(C)(C)C(c1ccccc1)C2c1ccc(OCCN2CCCC2)cc1 (racemic) [centchroman, 3,4-trans-2,2-dimethyl-3-phenyl-4-[4-(2-pyrrolidin-1-yl)ethoxy)phenyl]-7-methoxychroman]
cholesterol lowering, serum concentrations: significant decrease of the serum concentrations
